Consider one substance from patent US10292997B2, “Compositions and methods for stimulating wound healing” (priority 2011, dated 2019).

The test system of the experiment is full thickness skin wounds. Put plainly: Wound closure rate of excised full thickness skin wounds treated with gel formulations. The class given is in vivo, Hartley-derived albino guinea pigs.

With “Insulin: Insulin alone as control; non-steroidal anabolic hormone, vehicle not stated in the table”, the “Peak Closure Day” value (day of maximum closure rate) came out at 3.0 days. For the same substance, the “Closure % (day) 50%” value (day on which 50% wound closure is reached, gel about 1 cc/cm^2, dressing changed every 48 hours) amounted to 5.0 days. In addition, where the note is “wound closure reached on the peak closure day”, the “% Closure at Peak Closure Day” value was 30%.
